Measurements published in patent US20090221441A1, “THREE-DIMENSIONAL CELLULAR ARRAY CHIP AND PLATFORM FOR TOXICOLOGY ASSAYS” (Rensselaer Polytechnic Institute, priority 2005, published 2009).
“Also recorded” adds a separate entry of the source.

What was measured:
[1] = Cytotoxicity of compounds and their P450-generated metabolites, Hep3B DataChip stamped with MetaChip; conditions: human
Procedure: (§1) The cytotoxicity of drugs (or drug metabolites) was determined by staining the slide containing the cells with a Live/Dead test kit (Molecular Probes) that produces a green fluorescent response from living cells. At the end of the 3-day culture period post stamping, the three-dimensional cell chip (DataChip) was rinsed three times in PBS for 5 min each. One mL of a dye solution containing 0.5 μM calcein AM was applied to each three-dimensional cell chip using a glass slide with 1 mm thick perimeter gasket acting as a barrier to prevent loss of the dye solution.
(§2) Following incubation for 50 minutes at room temperature, excess dye in the collagen-gel drops was removed by incubating the slides in a petri dish containing 16 mL of PBS for 30 min on a gyratory shaker at 60 rpm. The three-dimensional cell chip was dried thoroughly with nitrogen. The three-dimensional cell chip was scanned with the GenePix® Professional 4200A scanner equipped with blue laser and standard blue filter to determine the green fluorescent intensity and was quantified from the scanning image using GenePix Pro 6.0 (Molecular Devices Co.).
(§3) Percent live cells=(FReaction/FMax)×100
(§4) where FReaction is the green fluorescence intensity of the reaction spot and FMax is the green fluorescence intensity of untreated fully viable cells.
(§5) For efficient stamping, MTMOS-coated glass slides were prepared to contain a sol-gel barrier on the periphery of the slides.
(§6) To this end […] of methyltrimethoxysilane (MTMOS) sol was prepared by mixing 2 mL of MTMOS with 1 mL of HCl (10 mM) and sonicated for 10 min. The sol was spotted on the periphery of the MTMOS-coated slide and then the slide was baked in an oven for 30 min at 120° C.
(§7) The MetaChip was stored at −80° C. for 1 day prior to use. Cytotoxicity studies were performed by spotting 20 nL of test compound in distilled water (0-2 mM) onto the MetaChip spots and partially dried.
(§8) This was followed by stamping of the three-dimensional cell chip (DataChip) containing either MCF7 or Hep3B cells onto the MetaChip.
(§9) To this end, a MetaChip consisting of 20×54 alginate spots was prepared; each spot containing a single human P450 isoform (CYP1A2, CYP2D6, or CYP3A4), a mixture of the three isoforms, or no P450 as a test compound only control. Addition of test compounds was carried out by overlay spotting of solutions of these compounds onto the MetaChip, which was then stamped on top of the DataChip.
(§10) Using three DataChips in combination with three MetaChips, IC50 values for 27 compounds and their P450-generated metabolites against human Hep3B cells were determined. […] The three P450 isoforms were used along with an equimolar mixture of the three isoforms and a test compound only control without P450. The test compounds were added to the MetaChip, which was then stamped onto the DataChip and incubated for 6 h. This was followed by removing the DataChip, rinsing with growth medium, incubating in media for 3 days, and then stained for cell viability.

[2] = system: human Hep3B cells; test: as above
Procedure: as §1, §2, §3, §4, §5, §6, §7, §8, §9, §10

[3] = P450 activity determination with blue fluorogenic substrates in 384-well plate; type: biochemical, human
Procedure: To assess the intrinsic reactivity of P450s in alginate matrices, reactions were performed in wells of a 384-well plate. P450-containing alginate sol was prepared by dispensing 24 μL of P450 baculosomes (1 nmol P450/mL), 36 μL of distilled water, and 60 μL of alginate (2%) in distilled water. Five microliters of this solution were spotted onto 5 μL of the dried PLL-barium spot in a 384-well. Followed by storage of the P450-alginate gel drops at −80° C. for 1 day, 25 μL of blue fluorogenic substrates (BOMCC for CYP3A4 and EOMCC for CYP1A2 and CYP2D6) containing 250 μM NADP^+ and its regeneration system (8 mM glucose-6-phosphate and 1 U/mL glucose-6-phosphate dehydrogenase) in 50 mM potassium phosphate buffer (pH 8) were dispensed onto the thawed P450-alginate gel drop.
As a control, soluble P450 without alginate was also used. The blue fluorescent 7-hydroxycoumarin released by P450-catalyzed oxidation of BOMCC or EOMCC was monitored as a function of time using a BioAssay Reader HTS 7000 Plus (Perkin Elmer, Norwalk, Conn.) at an excitation wavelength of 430 nm and emission wavelength of 497 nm.

[4] = IC50, CYP1A2, Hep3B DataChip, MetaChip spots with CYP1A2
[5] = IC50, CYP2D6, Hep3B DataChip, MetaChip spots with CYP2D6
[6] = IC50, CYP3A4, Hep3B DataChip, MetaChip spots with CYP3A4
[7] = IC50, Mixture, Hep3B DataChip, equimolar mixture of CYP1A2, CYP2D6, CYP3A4
[8] = IC50, No P450, Hep3B DataChip, test compound only control without P450
[9] = Hep3B cells, compared with no P450
[10] = Soluble enzyme (control, in solution)

| Compound | IC50 at 6 h [1, 4] | IC50 at 6 h [1, 5] | IC50 at 6 h [1, 6] | IC50 at 6 h [1, 7] | IC50 at 6 h [1, 8] | Activation or deactivation of the toxic response by CYP1A2 [2] | Activation or deactivation of the toxic response by CYP2D6 [2] | further results |
| --- | --- | --- | --- | --- | --- | --- | --- | --- |
| CCN(CC)CCCC(C)Nc1ccnc2cc(Cl)ccc12 (stereo not drawn) [Chloroquine] | 184 ± 19.9 µM | 112 ± 22.3 µM | 79.7 ± 12.8 µM | 94.5 ± 14.1 µM | 189 ± 25.2 µM |  |  | Activation or deactivation of the toxic response by CYP3A4 [2, 9]: deactivated |
| CC(=O)CC(c1ccccc1)c1c(O)c2ccccc2oc1=O (stereo not drawn) [Warfarin] |  |  |  |  |  |  |  | IC50 at 6 h ([1]; IC50, CYP1A2): > 1000 µM; IC50 at 6 h ([1]; IC50, CYP2D6): > 1000 µM; IC50 at 6 h ([1]; IC50, CYP3A4): > 1000 µM; IC50 at 6 h ([1]; IC50, Mixture): > 1000 µM; IC50 at 6 h ([1]; IC50, No P450): > 1000 µM |
| CN(C)CCC=C1c2ccccc2CCc2ccccc21 [Amitriptyline] | 75 ± 14.2 µM | 55.9 ± 10.1 µM | 63.4 ± 12.1 µM | 75.6 ± 9.89 µM | 31.7 ± 1.98 µM | moderately to weakly deactivated |  |  |
| NNC(=O)c1ccncc1 [Isoniazid] | 353 ± 89.9 µM | > 1000 µM | > 1000 µM | > 1000 µM | > 1000 µM |  |  |  |
| Oc1c(Cl)c(Cl)c(Cl)c(Cl)c1Cl [Pentachlorophenol] |  |  |  |  |  |  |  | IC50 ([1]; IC50, CYP1A2): > 1000 µM; IC50 ([1]; IC50, CYP2D6): > 1000 µM; IC50 ([1]; IC50, CYP3A4): > 1000 µM; IC50 ([1]; IC50, Mixture): 489 ± 272 µM; IC50 ([1]; IC50, No P450): > 1000 µM |
| CN(Cc1cnc2nc(N)nc(N)c2n1)c1ccc(C(=O)N[C@@H](CCC(=O)O)C(=O)O)cc1 [Methotrexate] | 2.79 ± 0.73 µM | 38.3 ± 12.1 µM | 10.9 ± 2.76 µM | 8 ± 2.97 µM | 2.41 ± 0.55 µM |  | deactivating | Activation or deactivation of the toxic response by CYP3A4 [2]: deactivated |
| Cl[C@H]1[C@H](Cl)[C@@H](Cl)[C@@H](Cl)[C@H](Cl)[C@H]1Cl [Lindane] | 2730 ± 1080 µM | 5150 ± 1960 µM | 523 ± 133 µM | > 1000 µM | 394 ± 132 µM | moderately to weakly deactivated | deactivating lindane (strongly) | Activation or deactivation of the toxic response by the mixture of the three P450 isoforms [2]: greater deactivation in the mixture than with any of the three individual isoforms |
| CC(=O)Nc1ccc(O)cc1 [Acetaminophen, acetaminophen] | 2590 ± 960 µM | > 1000 µM | 2770 ± 1240 µM | > 1000 µM | > 1000 µM | strongly activated |  | Activation or deactivation of the toxic response by CYP3A4 [2]: strongly activated; IC30 [2]: (IC30: 0.50 ± 0.02) |
| CC(=O)Oc1ccccc1C(=O)O [Acetylsalicylic Acid] | > 1000 µM | > 1000 µM | > 1000 µM | > 1000 µM | > 1000 µM |  |  |  |
| O=P1(N(CCCl)CCCl)NCCCO1 (stereo not drawn) [Cyclophosphamide, cyclophosphamide] | > 1000 µM | > 1000 µM | 2110 ± 600 µM | > 1000 µM | > 1000 µM |  |  | Activation or deactivation of the toxic response by CYP3A4 [2, 9]: strongly activated |
| CYP3A4: human P450 isoform (baculosomes), soluble or encapsulated in alginate; assayed with BOMCC |  |  |  |  |  |  |  | Km ([3]; In Alginate): 35.4 ± 8.98 µM; kcat ([3]; In Alginate): 0.0775 ± 0.0145 s⁻¹; Km [3, 10]: 33.7 ± 2.94 µM; kcat [3, 10]: 0.125 ± 0.008 s⁻¹ |
| C=C[C@H]1C[N@@]2CC[C@H]1C[C@@H]2[C@@H](O)c1ccnc2ccc(OC)cc12 [Quinidine] | 92.9 ± 7.5 µM | 106 ± 9.05 µM | 126 ± 10.2 µM | 246 ± 39.4 µM | 19.2 ± 2.36 µM |  |  | Activation or deactivation of the toxic response by the mixture of the three P450 isoforms ([2]; Hep3B cells): greater deactivation in the mixture than with any of the three individual isoforms; Activation or deactivation of the toxic response by CYP1A2 [2, 9]: moderately to weakly deactivated; Activation or deactivation of the toxic response by CYP2D6 [2, 9]: deactivating; Activation or deactivation of the toxic response by CYP3A4 [2, 9]: deactivated |
| CN1CCCC1c1cccnc1 (stereo not drawn) [Nicotine] |  |  |  |  |  | moderately to weakly deactivated | deactivating | IC50 ([1]; IC50, CYP1A2): 90.8 ± 20.3 µM; IC50 ([1]; IC50, CYP2D6): 158 ± 39.5 µM; IC50 ([1]; IC50, CYP3A4): 647 ± 191 µM; IC50 ([1]; IC50, Mixture): 377 ± 147 µM; IC50 ([1]; IC50, No P450): 29.5 ± 4.12 µM; Activation or deactivation of the toxic response by CYP3A4 [2]: deactivated chloroquine, quinidine, nicotine (strongly) |
| C[n+]1ccc(-c2cc[n+](C)cc2)cc1 [Paraquat, paraquat] |  |  |  |  |  |  |  | IC50 [1, 4]: 5.06 ± 0.29 µM; IC50 [1, 5]: 20.8 ± 1.8 µM; IC50 [1, 6]: 52 ± 9.12 µM; IC50 [1, 7]: 44.2 ± 6.05 µM; IC50 [1, 8]: 79.8 ± 12.7 µM; Activation or deactivation of the toxic response by the mixture of the three P450 isoforms ([2]; Hep3B cells): activation; Activation or deactivation of the toxic response by CYP1A2 [2, 9]: activation; Activation or deactivation of the toxic response by CYP2D6 [2, 9]: activation; also recorded: activated |
| Nc1ccn([C@@H]2O[C@H](CO)[C@@H](O)[C@@H]2O)c(=O)n1 [Cytarabine] |  |  |  |  |  | moderately to weakly deactivated | deactivating |  |
| C[C@H]1O[C@@H](O[C@H]2[C@@H](O)C[C@H](O[C@H]3[C@@H](O)C[C@H](O[C@H]4CC[C@@]5(C)[C@H](CC[C@@H]6[C@@H]5C[C@@H](O)[C@]5(C)[C@@H](C7=CC(=O)OC7)CC[C@]65O)C4)O[C@@H]3C)O[C@@H]2C)C[C@H](O)[C@@H]1O [Digoxin] | 1.29 ± 0.09 µM | 0.43 ± 0.03 µM | 1.37 ± 0.05 µM | 0.59 ± 0.03 µM | 0.8 ± 0.09 µM |  |  | IC50 at 6 h ([1]; IC50 values, Hep3B DataChip): < 1 µM |
| Cn1c(=O)c2[nH]cnc2n(C)c1=O [Theophylline] | 239 ± 56.4 µM | 119 ± 26.3 µM | 36.9 ± 11.2 µM | 84.3 ± 22.1 µM | 38.4 ± 8.92 µM | moderately to weakly deactivated | deactivating |  |
| CC(=O)O[C@H]1C(=O)[C@@]2(C)[C@H]([C@H](OC(=O)c3ccccc3)[C@]3(O)C[C@H](OC(=O)[C@H](O)[C@@H](NC(=O)c4ccccc4)c4ccccc4)C(C)=C1C3(C)C)[C@]1(OC(C)=O)CO[C@@H]1C[C@@H]2O [Paclitaxel, paclitaxel] |  |  |  |  |  |  | deactivating |  |
| O=c1[nH]c(=O)n(C2CCCO2)cc1F (stereo not drawn) [Tegafur, 5-fluoro-1-(tetrahydro-2-furfuryl)-uracil] | > 1000 µM | > 1000 µM | 54800 ± 21400 µM | > 1000 µM | > 1000 µM |  |  |  |
